Test results: US8993606B2, “Oral formulations for treating metal overload” (FerroKin BioSciences, Inc., priority 2011, dated 2015)

Assay: Aqueous solubility of salts
Type: physicochemical
Conditions: water; read-out: solubility in water
Source text: Typically, oral formulations described herein facilitate solubilizing an active ingredient (e.g., a desazadesferrithiocin analog, salt or polymorph) at a desired amount or rate suitable for the treatment of metal overload. As used herein, the term “solubility” is generally intended to be synonymous with the term “aqueous solubility,” and refers to the ability, and the degree of the ability, of a compound to dissolve in water or an aqueous solvent or buffer, as might be found under physiological conditions. Aqueous solubility is, in and of itself, a useful quantitative measure, but it has additional utility as a correlate and predictor, with some limitations which will be clear to those of skill in the art, of oral bioavailability. Typically, a soluble compound is generally desirable, and the more soluble, the better. In liquid formulations, solubility is typically reported in mg/mL, but other measures, such as g/g, may be used. Solubilities typically deemed acceptable may range from 1 mg/mL into the hundreds or thousands of mg/mL.
Solubility may be measured under varying conditions. For example, it may be measured under conditions similar to those found in the body, such as at gastric pH or at physiologic or near-physiologic pH. “Gastric pH” as used herein means about pH 1. […]

`COCCOCCOCCOc1cccc(C2=N[C@@](C)(C(=O)O)CS2)c1O` [Compound 1, (S)-4,5-Dihydro-2-[2-hydroxy-3-(3,6,9-trioxadecyloxy)phenyl]-4-methyl-4-thiazolecarboxylate magnesium hydroxide] gave a solubility of no less than 48 mg/mL.
